# What was measured:
# [1] = tested on: WT-ADSCs cells; test: anti-proliferation efficacy and cell cycle of CDK4/6 inhibitors against primary adipose derived stem cells; type: cell-based, mouse; settings: WT-ADSCs treated 6 days, PD 0.1 μM or LEE 10 μM, vs DMSO or vehicle; for frequency of proliferating cells (S-G2-M) / frequency of quiescence cells (G1): flow cytometric cell cycle profile; for total cell numbers: initial plating 5×10^5 cells
# Description: (a, d) representative flow cytometric cell cycle profiles of WT-ADSCs cells treated with either PD (0.1 μM) or LEE (10 μM) for 6 days. (b, e) histograms summarizing the cell cycle distribution of the cells in A and D. Data shown are mean±s.d. (n=6); *P<0.05 vs DMSO or V, t-test. (c, f) Histograms summarizing the total cell numbers in WT-ADSCs cells treated with DMSO or PD (0.1 μM) for 6 days (c), or WT-ADSCs cells treated with vehicle (0.5% methycellulose) or LEE for 6 days (F). Data shown are mean±s.d. (n=6); *P<0.05 vs DMSO or V, t-test. The initial plating cells were 5×10^5.
# To accomplish this, the anti-proliferation efficacy of CDK4/6 inhibitors against primary adipose derived stem cells (ADSCs) from the stromal vascular fraction (SVF) of WT adipose tissue (WT-ADSCs) we assessed. WT-ADSCs were treated with two known commercial available CDK4/6 inhibitors PD0332991 (PD) and LEE011 (LEE), two clinically relevant small molecule inhibitors of CDK4 and CDK6 kinases (Rader, J., et al. Clin Cancer Res 19, 6173-6182, 2013); Fry, D. W., et al. Mol Cancer Ther 3, 1427-1438, 2004; Pikman, Y., et al. Clin Cancer Res 23, 1012-1024, 2017) for 6 days with commonly used relevant effective doses (Fry, D. W., et al. Mol Cancer Ther 3, 1427-1438, 2004; Pikman, Y., et al. Clin Cancer Res 23, 1012-1024, 2017).
# [2] = tested on: WT-ADSCs; test: differentiation towards brown-like adipocytes in the presence of BAT inducers; type: cell-based, mouse; settings: WT-ADSCs with BAT inducers; LEE011 10 μM, PD 0.1 μM; vs vehicle
# Description: (a, d) Representative images of Oil Red O staining of differentiated ADSCs from WT and K43M mice (a, 10×) or WT-ADSCs treated with CDK4/6 inhibitor LEE011 (10 μM) and PD (0.1 μM) (a, 10×) in the presence of BAT inducers. (b, e) Representative images of Oil Red O staining of differentiated ADSCs from WT and K43M mice (b, 40×) or WT-ADSCs treated with CDK4/6 inhibitor LEE011 10 μM and PD 0.1 μM (e, 40×) in the presence of BAT inducers. (c, f) Representative images of bright field images of differentiated ADSCs from iWAT of WT and K43M mice or WT-ADSCs treated with CDK4/6 inhibitor LEE011 (10 μM) and PD (0.1 μM) (f, 40×) in the presence of BAT inducers.
# (a) Relative mRNA levels of BAT markers Ucp-1, Pgc-1α and Cidea in differentiated ADSCs in the presence of BAT inducers. […] (b) lysates from cells were analyzed by immunoblotting for expression of CDK6, UCP-1, PGC-1α, and RUNX1. […]
# Cellular differentiation entails the coordination of cell cycle arrest and tissue-specific gene expression. […] Accumulation of lipid-containing cells was detected by Oil red O staining as described (Hansen, J. B., et al. J Biol Chem 274, 2386-2393, 1999) (FIG. 11 a-b) and the characteristic feature of multilocular beige cells were also visualized under light microscopy (FIG. 11c). […]
SMILES,frequency of proliferating cells (S-G2-M) [1],frequency of quiescence cells (G1) [1],total cell numbers [1],brown-like adipocyte differentiation [2]
"CN(C)C(=O)c1cc2cnc(Nc3ccc(N4CCNCC4)cn3)nc2n1C1CCCC1 [LEE011, Ribociclib]",dramatic reduction,increased frequency,successfully reduced,can induce brown-like adipocytes in vitro
"CC(=O)c1c(C)c2cnc(Nc3ccc(N4CCNCC4)cn3)nc2n(C2CCCC2)c1=O [PD0332991, palbociclib]",dramatic reduction,increased frequency,successfully reduced,can induce brown-like adipocytes in vitro

# — US11077110B2, “Compositions and methods for treating and preventing metabolic disorders” (TUFTS MEDICAL CENTER, priority 2016, dated 2021)
